Results from publication PMC5025651, “Reprofiled anthelmintics abate hypervirulent stationary-phase Clostridium difficile” (Scientific Reports, 2016).
In brackets after ≈: the same amount, converted by molar mass. Structures can show the parent of a compound that is named as a salt. Where two headings read alike, the source gives them in different places.

Columns and labels:
16 C. difficile isolates = assay: MIC by broth microdilution, summary over 16 C. difficile isolates; assay type: cell-based, Clostridium difficile; conditions: for MIC Range: range over 16 C. difficile isolates
[1] = tested on: C. difficile isolate 20100584 (ribotype 014); assay: MIC by broth microdilution; assay type: cell-based, Clostridium difficile; conditions: Clostridioides difficile
C. difficile strain 4118 = assay: Serial passage experiments (resistance development); assay type: cell-based, Clostridium difficile; conditions: after 21 serial passages of CD4118 at 0.5 × MIC
Method: C. difficile strain 4118 serial passages were performed in BHIS containing 0.03% L-cysteine, using the broth microdilution method. The MIC for each compound was first determined according to the procedure detailed above. […] Serial passage experiments were performed in duplicate.

S. aureus RN4220 = assay: MIC by broth microdilution; assay type: cell-based; conditions: Staphylococcus aureus, CAMHB, aerobic, duplicate
Sheep red blood cells = assay: Hemolysis assay; assay type: cell-based; conditions: tested at 32 μg/mL, sheep erythrocytes
Procedure, shortened: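 PBS-washed sheep erythrocytes (3% suspension, pH 7.4) were exposed to compound at 32 μg/mL final for 1 h at 37 °C. After centrifugation, supernatant absorbance at 540 nm was read against 1% Triton X-100 (full lysis) and 0.5% DMSO in PBS. Triplicate.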

HEK 293T/17 cells = assay: In vitro cytotoxicity, MTS assay; assay type: cell-based, human; conditions: HEK 293T/17, MTS; for in vitro toxicity compared with niclosamide (in words): 0.125–32 μg/mL
Method: (§1) Cell lines Hep G2 [HEPG2] (ATCC® HB-8065^TM) and 293T/17 [HEK 293T/17] (ATCC® CRL-11268^TM) were purchased from ATCC and cultured according to manufacturer’s instructions. HEPG2 or HEK 293T/17 cells were cultured in 96-well plates, and incubated at 37 °C in a 5% CO2 humidifying chamber for 24 h. Cells were then treated with test compounds at concentrations ranging from 0.125–32 μg/mL, and an MTS assay was performed at 16-h post-incubation at 37 °C in a 5% CO2 humidifying chamber, using the CellTiter 96 aqueous non-radioactive cell proliferation assay kit (Promega, Madison, WI, USA) per manufacturer’s instructions. MTS assays were performed in duplicate.

HepG2 cells = assay: In vitro cytotoxicity, MTS assay; assay type: cell-based, human; conditions: for in vitro toxicity compared with niclosamide (in words): 0.125–32 μg/mL
Method: as §1

[2] = tested on: panel of obligate aerobes, facultative anaerobes and obligate anaerobes; assay: Antibacterial spectrum, MIC against a panel of bacteria; assay type: cell-based; conditions: ratio of MIC values
[3] = ruminants; cited from earlier work
[4] = tested on: C. difficile strain 630 (CD630, ATCC BAA-1382-FZ, ribotype 012); assay: MIC by broth microdilution; assay type: cell-based, Clostridium difficile
[5] = Clostridioides difficile, MIC at which 50% of the 16 isolates are inhibited, n = 2, read-out: MIC50
[6] = Clostridioides difficile, MIC at which 90% of the 16 isolates are inhibited, n = 2, read-out: MIC90
[7] = isolate 20100584, ribotype 014, duplicate, read-out: MIC

SMILES	MIC50 (16 C. difficile isolates; [5]) [µg/mL]	MIC90 (16 C. difficile isolates; [6]) [µg/mL]	MIC Range (16 C. difficile isolates; n = 2) [µg/mL]	MIC [1, 7] [µg/mL]	final MIC relative to initial (pre-passage) MIC (C. difficile strain 4118)	MIC (S. aureus RN4220) [µg/mL]	rupture of red blood cells (in words) (Sheep red blood cells)	in vitro toxicity compared with niclosamide (in words) (HEK 293T/17 cells)	in vitro toxicity compared with niclosamide (in words) (HepG2 cells; HepG2, MTS)	further results
CN[C@H](CC(C)C)C(=O)N[C@H]1C(=O)N[C@@H](CC(N)=O)C(=O)N[C@H]2C(=O)N[C@H]3C(=O)N[C@H](C(=O)N[C@H](C(=O)O)c4cc(O)cc(O)c4-c4cc3ccc4O)[C@H](O)c3ccc(c(Cl)c3)Oc3cc2cc(c3O[C@@H]2O[C@H](CO)[C@@H](O)[C@H](O)[C@H]2O[C@H]2C[C@](C)(N)[C@H](O)[C@H](C)O2)Oc2ccc(cc2Cl)[C@H]1O [Vancomycin, vancomycin hydrochloride hydrate]	1	2	0.5 to 2	0.5	~ 2 fold	1	–	–	–	–
O=C(Nc1ccc(Oc2ccc(Cl)cc2)c(Cl)c1)c1cc(I)cc(I)c1O [Rafoxanide, rafoxanide]	–	–	0.03 to 0.13	–	–	0.25 (≈ 0.399 µM)	did not cause rupture of red blood cells	lower in vitro toxicities	lower in vitro toxicities	MIC50 (16 C. difficile isolates; Clostridioides difficile): 0.06 µg/mL (≈ 0.0958 µM); MIC90 (16 C. difficile isolates; Clostridioides difficile): 0.13 µg/mL (≈ 0.208 µM); MIC [1]: 0.06 µg/mL (≈ 0.0958 µM); concentration with no apparent effect on cell viability (HEK 293T/17 cells; 16 h): ≥ 8000 ng/mL; no-effect concentration on mammalian cell viability relative to MIC values against C. difficile (HepG2 cells; 8 μg/mL, HepG2 and HEK 293T/17): ≥ 64 fold; concentration with no apparent effect on cell viability (HepG2 cells; HepG2, MTS, 16 h): ≥ 8000 ng/mL; selectivity for C. difficile over Bifidobacterium/Lactobacillus strains and Gram-negative gut commensals (Bacteroides species) [2]: ≥ 32 fold
Cc1cc(C(C#N)c2ccc(Cl)cc2)c(Cl)cc1NC(=O)c1cc(I)cc(I)c1O (centres unmarked) [Closantel]	0.25 (≈ 0.377 µM)	0.25 (≈ 0.377 µM)	0.13 to 1	0.25 (≈ 0.377 µM)	–	0.25 (≈ 0.377 µM)	–	–	–	excreted unchanged in the feces [3]: ≤ 90%
O=C(Nc1ccc(Oc2ccc(Cl)cc2)cc1)c1cc(Cl)cc(Cl)c1O [Compound 8]	–	–	–	0.06 (≈ 0.147 µM)	–	0.13 (≈ 0.318 µM)	did not cause rupture of red blood cells	lower in vitro toxicities	lower in vitro toxicities	MIC (16 C. difficile isolates; Clostridioides difficile, 14 isolates other than CD630 and CD4118, read-out: MIC values ranging, 14 other C. difficile isolates): 0.03 to 0.25 µg/mL (≈ 0.0734 to 0.612 µM); MIC50 (16 C. difficile isolates; MIC at which 50% of the 16 isolates are inhibited, n = 2): 0.06 µg/mL (≈ 0.147 µM); MIC90 (16 C. difficile isolates; MIC at which 90% of the 16 isolates are inhibited, n = 2): 0.25 µg/mL (≈ 0.612 µM); MIC C. difficile 630 ([4]; BHIS broth, anaerobic, 20–24 h, n = 2): 0.03 µg/mL (≈ 0.0734 µM); decrease in MIC relative to 5g ([4]; CD630 and CD4118 (Table 2)): 4 fold; MIC ([4]; Clostridioides difficile, ATCCBAA1382, BHIS broth, anaerobic, 20–24 h, n = 2): 0.03 µg/mL (≈ 0.0734 µM)
Cc1ncc([N+](=O)[O-])n1CCO [Metronidazole, metronidazole]	0.25 (≈ 1.46 µM)	0.25 (≈ 1.46 µM)	0.13 to 0.25	0.25 (≈ 1.46 µM)	~ 2 fold	> 32	–	–	–	–
